Here are results for eight molecules from ChEMBL document CHEMBL5360538, “Recent updates on 1,2,3-triazole-containing hybrids with in vivo therapeutic potential against cancers: A mini-review” (Eur J Med Chem, 2023).

The test system of data set [1] is Ehrlich. Put plainly: Antitumor activity against mouse EAC cells implanted in Swiss albino mouse model assessed as tumor growth inhibition at 10 mg/kg, ip administered each day for 9 days and measured after 14 days relative to control. The data set is classed as functional. The note with it: 336 h, time 14 day.
The test system of data set [2] is Ehrlich. Put plainly: Antitumor activity against mouse EAC cells implanted in Swiss albino mouse model assessed as increase in life span at 10 mg/kg, ip administered each day for 9 days and measured after 14 days relative to control. The note with it: time 14 day. The data set is classed as functional.
Data set [3] is described as follows: Antiproliferative activity against BCRP-mediated Topotecan-resistant HEK293/R2 cells assessed as inhibition of cell growth incubated for 5 days by MTS assay. The note with it: Homo sapiens, HEK293/R2, 120 h. The data set is classed as functional, cell-based. For orientation: Tetrazolium assays rely on reduction of a dye to a coloured formazan, in cell work by metabolically active cells.

Data set [4] in a line: Antiproliferative activity against BCRP-mediated human Topotecan-resistant MCF7/MX100 cells assessed as inhibition of cell growth incubated for 5 days by MTS assay. The data set is classed as functional, cell-based. Particulars: MCF7/MX100, 120 h.
A short description of data set [5]: Antiproliferative activity against BCRP-mediated human Topotecan-resistant S1M180 cells assessed as inhibition of cell growth incubated for 5 days by MTS assay. The data set is classed as functional, cell-based. The note with it: 120 h.
Data set [6] is described as follows: Antiproliferative activity against BCRP-mediated human Doxorubicin-resistant S1M180 cells assessed as inhibition of cell growth incubated for 5 days by MTS assay. In kind it is functional, cell-based. The note with it: S1-M1-80, 120 h.
Data set [7] in a line: Antiproliferative activity against […]-mediated human Doxorubicin-resistant 2008/MRP1 cells assessed as inhibition of cell growth incubated for 5 days by MTS assay. In kind it is functional, cell-based, Doxorubicin-resistant 2008/MRP1 cell. The note with it: 2008/MRP1, 120 h.
The nature of data set [8]: AUC(0 to infinity) in BALB/c mouse at 45 mg/kg, ip measured up to 24 hrs. The note with it: in vivo. Details: dose 45 mg/kg, time < 24 hrs, route ip. The data set is classed as ADME, organism-based.
Data set [9] can be described thus: Tmax in BALB/c mouse at 45 mg/kg, ip measured up to 24 hrs. In kind it is ADME, organism-based. The note with it: in vivo.
A short description of data set [10]: Cmax in BALB/c mouse at 45 mg/kg, ip measured up to 24 hrs. The note with it: in vivo. In kind it is ADME, organism-based. More on the design: time < 24 hrs, dose 45 mg/kg, route ip.
Data set [11] can be described thus: Half life in BALB/c mouse at 45 mg/kg, ip measured up to 24 hrs. The data set is classed as ADME, organism-based. The note with it: in vivo.
Data set [12] is described as follows: Antitumor activity against human Topotecan-resistant S1M180 cells over expressing BCRP xenografted in BALB/c nude mouse model assessed as reduction in tumor volume at 45 mg/kg, ip administered every 2 days for 6 times relative to control. In kind it is functional, Topotecan-resistant S1M180 cell. The note with it: time 12 day. More on the design: scale not given: the % may be the effect or the level left.

A short description of data set [13]: Antitumor activity against human Topotecan-resistant S1M180 cells over expressing BCRP xenografted in BALB/c nude mouse model assessed as fold change in topotecan level at 45 mg/kg, ip administered every 2 days for 6 times relative to control. The data set is classed as functional, Topotecan-resistant S1M180 cell. Particulars: time 12 day.
In the next data set the test system is NCI-H460. In words: Antiproliferative activity against human NCI-H460 cells assessed as inhibition of cell growth by MTT assay. In kind it is functional, cell-based.
In data set [14] the test system is A549. Put plainly: Antiproliferative activity against human A549 cells assessed as inhibition of cell growth by MTT assay. In kind it is functional, cell-based.
In data set [15] the test system is SGC-7901. Put plainly: Antiproliferative activity against human SGC-7901 cells assessed as inhibition of cell growth by MTT assay. The data set is classed as functional, cell-based.
The next data set deals with Bel-7402. Put plainly: Antiproliferative activity against human Bel-7402 cells assessed as inhibition of cell growth by MTT assay. The data set is classed as functional, cell-based.
Data set [16] relates to HepG2. In words: Antiproliferative activity against human HepG2 cells assessed as inhibition of cell growth by MTT assay. In kind it is functional, cell-based.
In another data set the test system is MDA-MB-231. Put plainly: Antiproliferative activity against human MDA-MB-231 cells assessed as inhibition of cell growth by MTT assay. In kind it is functional, cell-based.
For another data set, the system named is HT-29. In words: Antiproliferative activity against human HT-29 cells assessed as inhibition of cell growth by MTT assay. The data set is classed as functional, cell-based.
The test system of the next data set is A549/TR. Put plainly: Antiproliferative activity against taxol-resistant human A549/Taxol cells assessed as inhibition of cell growth by MTT assay. The data set is classed as functional, cell-based.
The subject of data set [17] is A549. In words: Antitumor activity against human A549 cells xenografted in BALB/c nude mouse model assessed as inhibition of tumor growth at 80 mg/kg, ip administered every other day for 7 times relative to control. In kind it is functional. In general terms: Xenograft models place foreign cells or tissue in a host animal.
In the next data set the test system is MCF7. In words: cells. The note with it: Homo sapiens.
Data set [18] relates to BGC-823. In words: Antiproliferative activity against human BGC-823 cells assessed as inhibition of cell growth incubated for 72 hrs by MTT assay. In kind it is functional, cell-based. The note with it: BGC-823, 72 h.
In data set [19] the test system is MGC-803. In words: Antiproliferative activity against human MGC-803 cells assessed as inhibition of cell growth incubated for 72 hrs by MTT assay. The data set is classed as functional, cell-based. The note with it: MGC-803, 72 h.
Data set [20] deals with SGC-7901. Put plainly: Antiproliferative activity against human SGC-7901 cells assessed as inhibition of cell growth incubated for 72 hrs by MTT assay. In kind it is functional, cell-based. Particulars: SGC-7901, 72 h.
Data set [21] relates to MGC-803. In words: Antitumor activity against human MGC-803 cells xenografted in BALB/c nude mouse model assessed as inhibition of tumor growth at 60 mg/kg, IG administered daily for 21 days relative to control. The data set is classed as functional. The note with it: MGC-803, po, 504 h, time 21 day.
Data set [22] deals with BGC-823. Put plainly: Potency index, ratio of 5-fluorouracil IC50 to test compound IC50 for antiproliferative activity against human BGC-823 cells assessed as inhibition of cell growth incubated for 72 hrs by MTT assay. The data set is classed as functional.
For data set [23], the system named is MGC-803. In words: Potency index, ratio of 5-fluorouracil IC50 to test compound IC50 for antiproliferative activity against human MGC-803 cells assessed as inhibition of cell growth incubated for 72 hrs by MTT assay. The data set is classed as functional.
In data set [24] the test system is SGC-7901. Put plainly: Potency index, ratio of 5-fluorouracil IC50 to test compound IC50 for antiproliferative activity against human SGC-7901 cells assessed as inhibition of cell growth incubated for 72 hrs by MTT assay. The data set is classed as functional.
The next data set has as its system Hep 3B2. Put plainly: Antiproliferative activity against human Hep3B cells assessed as inhibition of cell growth incubated for 72 hrs by MTT assay. In kind it is functional, cell-based.
Data set [25] relates to HepG2. Put plainly: Antiproliferative activity against human HepG2 cells assessed as inhibition of cell growth incubated for 72 hrs by MTT assay. In kind it is functional, cell-based. Particulars: HepG2, 72 h.
Data set [26] has as its system H22. In words: Antitumor activity against […] cells xenografted in BALB/c mouse model assessed as inhibition of tumor growth at 15 mg/kg, ip administered every 2 days for 15 days relative to control. The data set is classed as functional. Particulars: H22, 360 h, time 15 day.
Data set [27] has as its system H22. In words: Antitumor activity against […] cells xenografted in BALB/c mouse model assessed as inhibition of tumor growth at 45 mg/kg, ip administered every 2 days for 15 days relative to control. The data set is classed as functional. Particulars: H22, 360 h, time 15 day.
In data set [28] the test system is 4T1. In words: Antitumor activity against mouse 4T1 cells implanted mouse model assessed as inhibition of tumor growth at 15 mg/kg, ip relative to control. The data set is classed as functional.
For data set [29], the system named is PC-9. Put plainly: Antiproliferative activity against human PC-9 cells assessed as inhibition of cell growth by MTT assay. In kind it is functional, cell-based.
The test system of the next data set is NCI-H1975. Put plainly: Antiproliferative activity against human NCI-H1975 cells assessed as inhibition of cell growth by MTT assay. In kind it is functional, cell-based.
Data set [30] concerns PC-9. Put plainly: Antitumor activity against human PC-9 cells xenografted in NSG mouse model assessed as inhibition of tumor growth at 25 mg/kg, ip qd administered every day for 7 consecutive days relative to control. In kind it is functional. The note with it: PC-9, 168 h, time 7 day.
Data set [31] deals with 4T1. Put plainly: Antitumor activity against mouse 4T1 cells overexpressing IDO1 implanted in BALB/c mouse model assessed as inhibition of tumor growth at 25 mg/kg, ip qd administered every day for 8 consecutive days and measured after 14 days relative to control. In kind it is functional. Particulars: 4T1, 336 h, time 14 day.
Data set [32] can be described thus: Antiproliferative activity against human IMR-90 cells assessed as inhibition of cell growth by MTT assay. The data set is classed as toxicity, cell-based.
The subject of data set [33] is A549. In words: Antitumor activity against human A549 cells xenografted in zebrafish model assessed as reduction in tumor focal area at 2.5 uM relative to control. The data set is classed as functional. More on the design: scale not given: the % may be the effect or the level left.

On to `COc1ccc(-c2ccc3c(c2)OCC(=O)N3Cc2cn(-c3cc(Cl)cc(Cl)c3)nn2)cc1`, for which, in the data set on Ehrlich [1], the inhibition in vivo (in general, the change of the read-out against control, counted positive when it falls) at 10 mg/kg was 54%. The Activity in the data set with Ehrlich [2] is 68.94%.

Regarding `COC(=O)c1cccc(COc2c(-c3ccc(OCCOCCc4cn(CN(Cc5ccccc5)Cn5cc(CCOCCOc6ccc(-c7oc8ccccc8c(=O)c7OCc7cccc(C(=O)OC)c7)cc6)nn5)nn4)cc3)oc3ccccc3c2=O)c1`, the EC50 in [3], in data set [4], in data set [5], in data set [6] and in data set [7] was 0.0033 µM each time. In addition, the AUC(0-inf) (in general, the area under the concentration-time curve extrapolated to infinity) in [8] turned out to be 83500 ng·h/mL. Besides, the Tmax (in general, the time from dosing to the highest level) in data set [9] was 3 h. Also, the Cmax – broadly, the peak of the concentration-time curve – in [10] came out at 15700 ng/mL. Moreover, in data set [11], the half-life – broadly, how long it takes for the measured level to halve – is 10.6 h. Also, the Activity in data set [12] turned out to be 40%. Also, the “fold change (FC)” value in [13] was 2.

As to `COc1cc(C(=O)c2nn(-c3ccccc3F)nc2N2CC(O)C2)cc(OC)c1OC`, the IC50 (usually the concentration that inhibits the measured activity by half) in the data set on NCI-H460 amounted to 0.0654 µM; in the data set on A549 [14], 0.063 µM; with SGC-7901 [15], 0.063 µM; in the data set with Bel-7402, 0.0654 µM; in the data set on HepG2 [16], 0.0654 µM; in the data set with MDA-MB-231, 0.0654 µM. Also, the IC50 in the data set with HT-29 is 0.0654 µM; in the data set on A549/TR it was 0.0654 µM; in the data set with MCF7, 0.063 µM. Besides, the inhibition in vivo at 80 mg/kg in the data set with A549 [17] came to 60%.

Take `Cc1cc(=O)oc2cc(OCc3cn(-c4ccc(S(N)(=O)=O)cc4)nn3)ccc12`: the values for the IC50 in the data set with BGC-823 [18], in the data set with MGC-803 [19] and in the data set on SGC-7901 [20] were 0.4 µM, 3.4 µM and 3.5 µM, respectively. In addition, the inhibition in vivo at 60 mg/kg in the data set on MGC-803 [21] worked out at 64.2%. The “Ratio IC50” value with BGC-823 [22], in the data set with MGC-803 [23] and in the data set on SGC-7901 [24] was 4.1 each time.

On to `COc1cc(C(=O)c2nn(-c3ccccc3)nc2N2CCC(N)CC2)cc(OC)c1OC`, for which the IC50 in the data set on Hep 3B2 amounted to 0.0409 µM; with HepG2 [25] it was 0.0596 µM. In addition, the inhibition in vivo at 15 mg/kg in the data set with H22 [26] was found to be 66%. Moreover, the inhibition in vivo at 45 mg/kg with H22 [27] worked out at 82%.

In the case of `Clc1ccc(N/N=C/c2cn(-c3cc(Cl)cc(Cl)c3)nn2)cc1`, the inhibition in vivo at 15 mg/kg in the data set on 4T1 [28] is over 60%. This molecule gave an IC50 with MCF7 of 3.2 µM.

Regarding `COCCOc1cc2ncnc(Nc3cccc(-c4cn(Cc5cc(Br)cc(Br)c5)nn4)c3)c2cc1OCCOC`, the IC50 in the data set with PC-9 [29], in the data set on NCI-H460, in the data set on NCI-H1975 and in the data set with A549 [14] was 3.31 µM each time. The inhibition in vivo at 25 mg/kg in the data set on PC-9 [30] is 90%; in the data set with 4T1 [31], 64%.

For `COc1cc(/C=C/C(=O)C(Cc2cn(Cc3ccc(Cl)c(Cl)c3)nn2)C(=O)/C=C/c2ccc(O)c(OC)c2)ccc1O`, the IC50 with A549 [14] was 2.27 µM; in data set [32] it was over 100 µM. In addition, the Activity with A549 [33] is recorded as 39.07%.
